Reference: patent publication US7067538B2, “MCP-1 receptor antagonists and methods of use thereof” (Warner-Lambert Company, LLC, priority 2002, dated 2006)
Like-named read-outs stand apart in the source and are kept apart here.

Legend:
[1] = Pharmacokinetics in rats after intravenous infusion and oral gavage; assay type: in vivo
Experimental: The compound of Example 4, 3-[Bis-(4-chloro-phenyl)-methanesulfonyl]-1,1,1-trifluoro-propan-2-one, was administered to rats via a 5-minute intravenous infusion at 0.175 mg/mL (solution in 5% DMA/95% Tris base (50 mM in water)) and oral gavage at 0.35 mg/mL (suspension in 5% (w/v) PEG 200/95% (w/v) methylcellulose (0.5%)). Following intravenous administration of a 0.5 mg/kg dose to rats, the systemic clearance was about 0.06 mL/min/kg and the volume of distribution was about 0.2 L/kg. […] Following a 1 mg/kg oral dose, the compound of Example 4 was absorbed in rats with mean peak plasma levels of 6 μg/mL occurring approximately 2.5 hours after dosing. Based on the ratio of the dose-normalized area under the plasma concentration-time curve from 0 to 96 hour after oral and intravenous doses, the absolute oral bioavailability averaged about 100%. […]

[2] = test system: MCP-1 response in THP-1 cells; assay: Calcium flux in THP-1 cells stimulated with human MCP-1 (FLIPR); assay type: cell-based; conditions: read-out: Calcium Flux IC50
Experimental: Compounds of were evaluated for their effect on calcium flux using methodology known in the art, e.g., Neote et al., Cell 1993, 72:415–425. Briefly, THP-1 cells were incubated with the fluorescence dye FLUO-4 for 1 hour, the cells were washed after this loading period, resuspended in HANKs buffer, and loaded into a 384-well plate. The cells were then incubated in the presence of a compound of Example 1–12, 14, 18, 22–23, 27–28, 30, or [bis-(4-chloro-phenyl)-methanesulfonyl]-acetic acid methyl ester. After a 30-minute incubation period, the cells were stimulated with 33 nM human MCP-1 and the calcium flux response recorded and quantified with a FLIPR^384® (384-well Fluorometric Imaging Plate Reader) ([…], Sunnyvale, Calif.). The IC50's (μM) of the inhibition of the maximal MCP-1 response are set out in Table 1.

[3] = target: T1, MCP-1 receptor (300-19 cell membranes) (Homo sapiens, UniProt P41597); assay: Inhibition of binding of 125I-MCP-1 to 300-19 cell membranes
T1 construct: host or cells: 300-19 cells (membrane preparation)
Experimental: Compounds were also assayed for their ability to inhibit the binding of radiolabeled MCP-1 to cell membranes. The materials and methods are set out below.
Membrane Preparation. 300-19 cells were harvested by centrifugation and washed with PBS (Dulbecco's phosphate-buffered saline w/o Ca and Mg). Cells were frozen at −80° C. overnight then resuspensed in ice cold lysis buffer (5 mM HEPES, 2 mM EDTA, 10 μg/mL of leupeptin, aprotinin, and chymostatin, and 200 μg/mL PMSF). The cell suspension was centrifuged at 1,000 rpm for 10 minutes and the supernatant was transferred and centrifuged at 14,000 rpm for 45 minutes at 4° C. then discarded. The resulting pellet was resuspended in stock buffer (10 mM HEPES, 300 mM sucrose, 20 μg/mL of leupeptin, aprotinin, and chymostatin, and 200 μg/mL PMSF), aliquoted, and frozen at −80° C. until use. Typical binding assays used 1.0 μg/well protein.
Prepared membranes were resuspended in binding buffer (50 mM Tris, 10 mM MgCl2, 1 mM EDTA pH 7.4) at 10 μg/mL protein. Membranes (1.0 μg/well) were incubated with ^125I-MCP-1 (0.15 nM) in the absence or presence of unlabeled chemokine (465 nM) or a compound of Examples 1–11, 14, 16, 19, 22, 27–30, 33–34, or [bis-(4-chloro-phenyl)-methanesulfonyl]-acetic acid methyl ester (0.001 μM–40 μM) for 3 hours at room temperature in a 96-well plate (total volume 250 μL). The reaction was terminated by filtration using a 96-well plate harvester (Packard Filtermate 196 Harvester). Filters (Packard GF/C) were prewet with 0.3% PEI containing 0.5% BSA and washed 5 times with wash buffer (DPBS, 0.3 MnCl2, and 0.25% BSA) prior to reaction termination. After terminating the reaction, filters were washed 6 times with wash buffer, and allowed to dry overnight. Scintillation fluid (Packard's Micro Scint 20) was added to each well and radioactivity bound was determined by liquid scintillation spectrometry. Nonspecific binding was determined in the presence of 465 nM unlabeled MCP-1. The IC50's (μM) of the inhibition of the binding of the iodinated MCP-1 are set out in Table 2.

[4] = Plasma stability in rat plasma and acidified rat plasma (LC/MS); assay type: in vitro ADME; conditions: 1 μg/mL, 1 hour at room temperature or 37° C.
Experimental: Plasma stability studies were conducted on (Di-p-tolyl-methanesulfonyl)-acetic acid methyl ester and [bis-(4-chloro-phenyl)-methanesulfonyl]-acetic acid methyl ester. Briefly, these compounds (at a final concentration of 1 μg/mL) were separately inclubated in rat plasma and acidified rat plasma for 1 hour at room temperature or 37° C.

[5] = 0.5 h, THP-1 cells, 30-minute incubation, stimulated with 33 nM human MCP-1, inhibition of the maximal MCP-1 response
[6] = 300-19 cell membranes 1.0 μg/well, 125I-MCP-1 0.15 nM, 3 hours at room temperature, read-out: IC50 of the inhibition of the binding of the iodinated MCP-1

T1 sequence (P41597 whole entry): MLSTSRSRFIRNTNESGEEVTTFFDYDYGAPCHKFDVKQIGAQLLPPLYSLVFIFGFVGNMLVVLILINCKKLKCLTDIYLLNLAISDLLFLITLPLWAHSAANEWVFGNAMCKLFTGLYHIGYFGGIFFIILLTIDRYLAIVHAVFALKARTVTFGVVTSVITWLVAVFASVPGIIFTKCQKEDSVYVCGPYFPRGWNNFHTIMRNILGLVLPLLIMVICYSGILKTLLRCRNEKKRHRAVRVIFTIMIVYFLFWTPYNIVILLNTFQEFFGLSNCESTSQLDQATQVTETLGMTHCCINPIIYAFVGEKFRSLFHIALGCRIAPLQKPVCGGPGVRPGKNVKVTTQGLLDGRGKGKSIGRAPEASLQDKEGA

With `O=C(CF)CS(=O)(=O)C(c1ccc(Cl)cc1)c1ccc(Cl)cc1` [Example 7, 3-[Bis-(4-chloro-phenyl)-methanesulfonyl]-1-fluoro-propan-2-one] the bioavailability ([1]; rat, in vivo) was less than 10%, the half-life ([1]; rat, in vivo) was 90 min and the “decrease in concentrations within 2 hours after dosing” value ([1]; rat, in vivo, iv, 1 mg/kg) was greater than 100 fold. For the same molecule, the “mean peak plasma levels” value ([1]; rat, in vivo, po, 5 mg/kg) was 359 ng/mL, the “time for which plasma concentrations were measurable after dosing” value ([1]; rat, in vivo, po, 5 mg/kg) was 4 h and the “time of peak plasma levels after dosing” value ([1]; rat, in vivo, po, 5 mg/kg) was 15 min. For the same molecule, the melting point was 55 to 58 °C, the IC50 [2, 5] was 423 nM and the IC50 [3, 6] was 101 nM.
With `COC(=O)CS(=O)(=O)C(c1ccc(C)cc1)c1ccc(C)cc1` [(Di-p-tolyl-methanesulfonyl)-acetic acid methyl ester, reference compound] the “plasma concentrations after intravenous or oral administration” value ([1]; rats, 1 mg/kg intravenous infusion or 5 mg/kg oral gavage, LC/MS) was “below the lower limit of quantitation” and the “compound remaining after incubation in plasma” value [4] was “below the lower limit of quantitation”.
In the case of `O=C(CS(=O)(=O)C(c1ccc(Cl)cc1)c1ccc(Cl)cc1)C(F)F` [Example 8, 3-[Bis-(4-chloro-phenyl)-methanesulfonyl]-1,1-difluoro-propan-2-one], the bioavailability ([1]; rat, in vivo) is reported as roughly 43%, the half-life ([1]; rat, in vivo) is reported as 420 min and the Vd ([1]; rat, in vivo, iv, 1 mg/kg) is reported as 0.28 L/kg. For the same molecule, the clearance ([1]; rat, in vivo, iv, 1 mg/kg) was 0.75 mL/min/kg, the “mean peak plasma levels” value ([1]; rat, in vivo, po, 5 mg/kg) was “about 7 μg/mL” and the “time of peak plasma levels after dosing” value ([1]; rat, in vivo, po, 5 mg/kg) was 30 to 60 min. The IC50 [2, 5] was 108 nM and the IC50 [3, 6] was 88 nM.
`O=C(CS(=O)(=O)C(c1ccc(Cl)cc1)c1ccc(Cl)cc1)C(F)(F)F` [Example 4, 3-[Bis-(4-chloro-phenyl)-methanesulfonyl]-1,1,1-trifluoro-propan-2-one] gave a bioavailability ([1]; rat, in vivo) of roughly 100%, a half-life ([1]; rat, in vivo) of roughly 2820 min and a Vd ([1]; rat, in vivo, iv, 0.5 mg/kg) of roughly 0.2 L/kg. The clearance ([1]; rat, in vivo, iv, 0.5 mg/kg) was roughly 0.06 mL/min/kg, the “mean peak plasma levels” value ([1]; rat, in vivo, po, 1 mg/kg) was 6000 ng/mL and the “time of peak plasma levels after dosing” value ([1]; rat, in vivo, po, 1 mg/kg) was “approximately 2.5 hours”. For the same molecule, the melting point was 60 to 62 °C, the IC50 [2, 5] was 495 nM and the IC50 [3, 6] was 175 nM.
In the case of `COC(=O)CS(=O)(=O)C(c1ccc(Cl)cc1)c1ccc(Cl)cc1` [[Bis-(4-chloro-phenyl)-methanesulfonyl]-acetic acid methyl ester, reference compound], the IC50 ([2]; Homo sapiens, THP-1, 0.5 h) is reported as 150 nM, the IC50 [3] is reported as 7320 nM and the “compound remaining after incubation in plasma” value [4] is reported as “below the lower limit of quantitation”.
